# Measurements as given in patent US9586928B2 (The Scripps Research Institute, priority 2011, dated 2017).
# Legend:
# GST-RORγ = target: T1, GST-RORγ (Homo sapiens, UniProt P51449); experiment: RORγ scintillation proximity (SPA) radioligand binding assay, displacement of [3H]-T0901317; conditions: read-out: RORγ SPA % bound = % radiolabel bound; for remaining activity at 10 µM: 10 μM compound; for remaining activity at 1 µM: 1 μM compound (Table 2D)
# T1 construct: 1 μg of GST-RORγ-LBD, 5 nM of [3H]T1317 as radioligand
# T1 sequence (P51449 269-508 limits assumed): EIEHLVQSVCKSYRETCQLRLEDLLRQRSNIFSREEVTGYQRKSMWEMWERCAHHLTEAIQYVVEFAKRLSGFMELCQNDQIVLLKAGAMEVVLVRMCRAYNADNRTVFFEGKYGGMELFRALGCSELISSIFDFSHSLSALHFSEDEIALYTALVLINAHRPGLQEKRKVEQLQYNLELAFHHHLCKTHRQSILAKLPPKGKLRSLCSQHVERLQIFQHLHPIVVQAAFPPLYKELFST
# RORγ = target: T2, RORγ (Homo sapiens, UniProt P51449); experiment: Gal4-RORγ LBD / UAS luciferase cotransfection assay; type: cell-based; conditions: 10 μM
# T2 construct: expressed in transfected cells; host or cells: HEK293T
# T2 sequence (P51449 269-508 limits assumed): T1 sequence (P51449 269-508 limits assumed)
# VP16 = experiment: Gal4 DBD-VP16 / UAS luciferase control assay; type: cell-based; conditions: 10 μM
remaining activity at 10 µM (GST-RORγ) [%],remaining activity at 1 µM (GST-RORγ) [%],Compound,"RORγ repression, fold change over DMSO (RORγ) [fold change over DMSO]","VP16 repression, fold change over DMSO (VP16) [fold change over DMSO]"
80,–,"OC(c1ccc(-c2ccc(CN3CCN(Cc4ccncc4)CC3)cc2)cc1F)(C(F)(F)F)C(F)(F)F [Compound 105, 1,1,1,3,3,3-Hexafluoro-2-(3-fluoro-4′-((4-(pyridin-4-ylmethyl)piperazin-1-yl)methyl)-[1,1′-biphenyl]-4-yl)propan-2-ol]",–,–
40,–,"COc1cc(-c2ccc(CN3CCN(Cc4ccncc4)CC3)cc2)ccc1C(O)(C(F)(F)F)C(F)(F)F [Compound 106, 1,1,1,3,3,3-Hexafluoro-2-(3-methoxy-4′-((4-(pyridin-4-ylmethyl)piperazin-1-yl)methyl)-[1,1′-biphenyl]-4-yl)propan-2-ol]",–,–
100,–,"Cc1cc(-c2ccc(CN3CCN(Cc4ccncc4)CC3)cc2)ccc1C(O)(C(F)(F)F)C(F)(F)F [Compound 107, 1,1,1,3,3,3-Hexafluoro-2-(3-methyl-4′-((4-(pyridin-4-ylmethyl)piperazin-1-yl)methyl)-[1,1′-biphenyl]-4-yl)propan-2-ol]",–,–
15,–,O=C1CN(Cc2ccc(-c3ccc(C(O)(C(F)(F)F)C(F)(F)F)cc3)cc2)CCN1Cc1ccncc1 [Compound 119],–,–
15,–,O=C1CN(Cc2ccncc2)CCN1Cc1ccc(-c2ccc(C(O)(C(F)(F)F)C(F)(F)F)cc2)cc1 [Compound 120],–,–
–,76,"O=C(Nc1ccc(-c2ccc(C(O)(C(F)(F)F)C(F)(F)F)cc2)cc1)N1CCN(Cc2ccncc2)CC1 [Compound 136, N-(4′-(1,1,1,3,3,3-hexafluoro-2-hydroxypropan-2-yl)-[1,1′-biphenyl]-4-yl)-4-(pyridin-4-ylmethyl)piperazine-1-carboxamide]",–,–
–,68,"O=S(=O)(c1ccc(-c2ccc(C(O)(C(F)(F)F)C(F)(F)F)cc2)cc1)N1CCN(Cc2ccncc2)CC1 [Compound 138, 1,1,1,3,3,3-hexafluoro-2-(4′-((4-(pyridin-4-ylmethyl)piperazin-1-yl)sulfonyl)-[1,1′-biphenyl]-4-yl)propan-2-ol]",–,–
–,59,"OC(c1ccc(-c2ccc3c(c2)CCC3N2CCN(Cc3ccncc3)CC2)cc1)(C(F)(F)F)C(F)(F)F (centres unmarked) [Compound 139, 1,1,1,3,3,3-hexafluoro-2-(4-(1-(4-(pyridin-4-ylmethyl)piperazin-1-yl)-2,3-dihydro-H I-inden-5-yl)phenyl)propan-2-ol]",–,–
–,74,"CC(c1ccc(-c2ccc(C(O)(C(F)(F)F)C(F)(F)F)cc2)cc1)N1CCN(Cc2ccncc2)CC1 (centres unmarked) [Compound 140, 1,1,1,3,3,3-hexafluoro-2-(4′-(1-(4-(pyridin-4-ylmethyl)piperazin-1-yl)ethyl)-[1,1′-biphenyl]-4-yl)propan-2-ol]",–,–
–,74,"CCC(c1ccc(-c2ccc(C(O)(C(F)(F)F)C(F)(F)F)cc2)cc1)N1CCN(Cc2ccncc2)CC1 (centres unmarked) [Example 141, 1,1,1,3,3,3-hexafluoro-2-(4′-(1-(4-(pyridin-4-ylmethyl)piperazin-1-yl)propyl)-[1,1′-biphenyl]-4-yl)propan-2-ol]",–,–
–,73,"CCCCC(c1ccc(-c2ccc(C(O)(C(F)(F)F)C(F)(F)F)cc2)cc1)N1CCN(Cc2ccncc2)CC1 (centres unmarked) [Example 142, 1,1,1,3,3,3-hexafluoro-2-(4′-(1-(4-(pyridin-4-ylmethyl)piperazin-1-yl)pentyl)-[1,1′-biphenyl]-4-yl)propan-2-ol]",–,–

# Continued, compound first:
Compound,remaining activity at 10 µM (GST-RORγ) [%],remaining activity at 1 µM (GST-RORγ) [%],"RORγ repression, fold change over DMSO (RORγ) [fold change over DMSO]","VP16 repression, fold change over DMSO (VP16) [fold change over DMSO]"
"OC(c1ccc(-c2ccc(CN3CCN(Cc4c[nH]cn4)CC3)cc2)cc1)(C(F)(F)F)C(F)(F)F [Compound 112, 2-(4′-((4-((1H-Imidazol-5-yl)methyl)piperazin-1-yl)methyl)-[1,1′-biphenyl]-4-yl)-1,1,1,3,3,3-hexafluoropropan-2-ol]",48,–,–,–
CC1CN(Cc2ccc(-c3ccc(C(O)(C(F)(F)F)C(F)(F)F)cc3)cc2)CCN1Cc1ccncc1 (centres unmarked) [Compound 117],20,–,–,–
CC1CN(Cc2ccncc2)CCN1Cc1ccc(-c2ccc(C(O)(C(F)(F)F)C(F)(F)F)cc2)cc1 (centres unmarked) [Compound 118],20,–,–,–
"O=C(Cc1ccc(-c2ccc(C(O)(C(F)(F)F)C(F)(F)F)cc2)cc1)N1CCN(Cc2ccncc2)CC1 [Compound 137, 2-(4′-(1,1,1,3,3,3-hexafluoro-2-hydroxypropan-2-yl)-[1,1′-biphenyl]-4-yl)-1-(4-(pyridin-4-ylmethyl)piperazin-1-yl)ethanone]",–,81,–,–
"O=S(=O)(c1cccs1)N1CCN(Cc2ccc(-c3ccc(C(O)(C(F)(F)F)C(F)(F)F)cc3)cc2)CC1 [Example 145, 1,1,1,3,3,3-Hexafluoro-2-(4′-((4-(thiophen-2-ylsulfonyl)piperazin-1-yl)methyl)-[1,1′-biphenyl]-4-yl)propan-2-ol]",–,–,3.0,3.0
"O=S(=O)(c1ccc(C(F)(F)F)cc1)N1CCN(Cc2ccc(-c3ccc(C(O)(C(F)(F)F)C(F)(F)F)cc3)cc2)CC1 [Example 146, 1,1,1,3,3,3-Hexafluoro-2-(4′-((4-((4-(trifluoromethyl)phenyl)sulfonyl)piperazin-1-yl)methyl)-[1,1′-biphenyl]-4-yl)propan-2-ol]",–,–,0.9,0.7
"O=S(=O)(c1ccc(CBr)cc1)N1CCN(Cc2ccc(-c3ccc(C(O)(C(F)(F)F)C(F)(F)F)cc3)cc2)CC1 [Example 147, 2-(4′-((4-((4-(Bromomethyl)phenyl)sulfonyl)piperazin-1-yl)methyl)-[1,1′-biphenyl]-4-yl)-1,1,1,3,3,3-hexafluoropropan-2-ol]",–,–,0.5,0.5
"Cc1ccc([N+](=O)[O-])cc1S(=O)(=O)N1CCN(Cc2ccc(-c3ccc(C(O)(C(F)(F)F)C(F)(F)F)cc3)cc2)CC1 [Example 148, 1,1,1,3,33-Hexafluoro-2-(4′-((4-((2-methyl-5-nitrophenyl)sulfonyl)piperazin-1-yl)methyl)-[1,1′-biphenyl]-4-yl)propan-2-ol]",–,–,0.4,1.0
"O=[N+]([O-])c1ccc(S(=O)(=O)N2CCN(Cc3ccc(-c4ccc(C(O)(C(F)(F)F)C(F)(F)F)cc4)cc3)CC2)cc1 [Example 149, 1,1,1,3,3,3-Hexafluoro-2-(4′-((4-((4-nitrophenyl)sulfonyl)piperazin-1-yl)methyl)-[1,1′-biphenyl]-4-yl)propan-2-ol]",–,–,0.5,0.7
"O=C(OCc1ccccc1)N1CCN(Cc2ccc(-c3ccc(C(O)(C(F)(F)F)C(F)(F)F)cc3)cc2)CC1 [Example 150, Benzyl 4-((4′-(1,1,1,3,3,3-hexafluoro-2-hydroxypropan-2-yl)-[1,1′-biphenyl]-4-yl)methyl)piperazine-1-carboxylate]",–,–,0.5,0.9
"O=C(Oc1ccc([N+](=O)[O-])cc1)N1CCN(Cc2ccc(-c3ccc(C(O)(C(F)(F)F)C(F)(F)F)cc3)cc2)CC1 [Example 151, 4-Nitrophenyl 4-((4′-(1,1,1,3,3,3-hexafluoro-2-hydroxypropan-2-yl)-[1,1′-biphenyl]-4-yl)methyl)piperazine-1-carboxylate]",–,–,0.6,0.6
